Results: ChEMBL document CHEMBL1914384, “Design, synthesis, and structure-activity relationship studies of highly potent novel benzoxazinyl-oxazolidinone antibacterial agents” (J Med Chem, 2011)
In brackets after ≈: the same amount, converted by molar mass.

Key:
Staphylococcus aureus [1] = assay: Antibacterial activity against Staphylococcus aureus ATCC 29213 after 16 hrs by agar dilution method; type: functional; conditions: ATCC 29213, 16 h
Staphylococcus aureus [2] = assay: Antibacterial activity against methicillin-resistant Staphylococcus aureus after 16 hrs by agar dilution method; type: functional
[3] = system: Staphylococcus epidermidis; assay: Antibacterial activity against methicillin-resistant Staphylococcus epidermidis after 16 hrs by agar dilution method; type: functional
Streptococcus pneumoniae [4] = assay: Antibacterial activity against penicillin-resistant Streptococcus pneumoniae after 16 hrs by agar dilution method; type: functional
Enterococcus faecalis [5] = assay: Antibacterial activity against Enterococcus faecalis after 16 hrs by agar dilution method; type: functional
Staphylococcus aureus [6] = assay: Antibacterial activity against linezolid-resistant Staphylococcus aureus after 16 hrs by agar dilution method; type: functional
[7] = system: Staphylococcus epidermidis; assay: Antibacterial activity against linezolid-resistant Staphylococcus epidermidis after 16 hrs by agar dilution method; type: functional
Enterococcus faecalis [8] = assay: Antibacterial activity against linezolid-resistant Enterococcus faecalis after 16 hrs by agar dilution method; type: functional
Enterococcus faecium [9] = assay: Antibacterial activity against linezolid-resistant Enterococcus faecium after 16 hrs by agar dilution method; type: functional
Staphylococcus aureus [10] = assay: Antibacterial activity against Staphylococcus aureus ATCC 19636 infected in mouse systemic infection model administered orally 1 hour after infection measured 48 hrs of post-treatment; type: functional; conditions: ATCC 19636, po
Staphylococcus aureus [11] = assay: Antibacterial activity against methicillin-resistant Staphylococcus aureus ATCC 33591 infected in NSA mouse neutropenic model administered orally 1 hour after infection measured 48 hrs post-treatment; type: functional; conditions: ATCC 33591, po
Staphylococcus aureus [12] = assay: Antibacterial activity against Linezolid-resistant Staphylococcus aureus after 16 hrs by agar dilution method relative to Linezolid; type: functional
[13] = system: Staphylococcus epidermidis; assay: Antibacterial activity against Linezolid-resistant Staphylococcus epidermidis after 16 hrs by agar dilution method relative to Linezolid; type: functional
Enterococcus faecalis [14] = assay: Antibacterial activity against Linezolid-resistant Enterococcus faecalis after 16 hrs by agar dilution method relative to Linezolid; type: functional
Enterococcus faecium [15] = assay: Antibacterial activity against Linezolid-resistant Enterococcus faecium after 16 hrs by agar dilution method relative to Linezolid; type: functional
Staphylococcus aureus [16] = assay: Antibacterial activity against Staphylococcus aureus ATCC 19636 infected in mouse systemic infection model administered orally 1 hour after infection measured 48 hrs post-treatment relative to Linezolid; type: functional
Staphylococcus aureus [17] = assay: Antibacterial activity against methicillin-resistant Staphylococcus aureus ATCC 33591 infected in NSA mouse neutropenic model administered orally 1 hour after infection measured 48 hrs post-treatment relative to Linezolid; type: functional
[18] = Cmax in Sprague-Dawley rat at 15 mg/kg, po by LC-MS analysis; type: ADME, organism-based; parameters: dose 15 mg/kg, route oral; conditions: in vivo
[19] = Tmax in Sprague-Dawley rat at 15 mg/kg, po by LC-MS analysis; type: ADME, organism-based; parameters: dose 15 mg/kg, route oral; conditions: in vivo
[20] = Half life in Sprague-Dawley rat at 15 mg/kg, po by LC-MS analysis; type: ADME, organism-based; parameters: dose 15 mg/kg, route oral; conditions: in vivo
[21] = AUC (0 to infinity) in Sprague-Dawley rat at 15 mg/kg, po by LC-MS analysis; type: ADME, organism-based; parameters: time infinity, dose 15 mg/kg, route oral; conditions: plasma
[22] = Clearance in Sprague-Dawley rat at 15 mg/kg, po by LC-MS analysis; type: ADME, organism-based; parameters: dose 15 mg/kg, route oral; conditions: in vivo
[23] = Oral bioavailability in Sprague-Dawley rat at 15 mg/kg by LC-MS analysis; type: ADME, organism-based; conditions: in vivo
[24] = Cmax in Sprague-Dawley rat at 15 mg/kg, iv by LC-MS analysis; type: ADME, organism-based; parameters: dose 15 mg/kg, route intravenous; conditions: in vivo
[25] = Clearance in Sprague-Dawley rat at 15 mg/kg, iv by LC-MS analysis; type: ADME, organism-based; parameters: dose 15 mg/kg, route intravenous; conditions: in vivo
[26] = Cmax in Sprague-Dawley rat at 50 mg/kg, po by LC-MS analysis; type: ADME, organism-based; parameters: dose 50 mg/kg, route oral; conditions: in vivo
[27] = Tmax in Sprague-Dawley rat at 50 mg/kg, po by LC-MS analysis; type: ADME, organism-based; parameters: dose 50 mg/kg, route oral; conditions: in vivo
[28] = Half life in Sprague-Dawley rat at 50 mg/kg, po by LC-MS analysis; type: ADME, organism-based; parameters: dose 50 mg/kg, route oral; conditions: in vivo
[29] = AUC (0 to infinity) in Sprague-Dawley rat at 50 mg/kg, po by LC-MS analysis; type: ADME, organism-based; parameters: time infinity, dose 50 mg/kg, route oral; conditions: plasma
[30] = Oral bioavailability in Sprague-Dawley rat at 50 mg/kg by LC-MS analysis; type: ADME, organism-based; conditions: in vivo
[31] = Half life in Sprague-Dawley rat at 10 mg/kg, iv by LC-MS analysis; type: ADME, organism-based; parameters: dose 10 mg/kg, route intravenous; conditions: in vivo
[32] = AUC (0 to infinity) in Sprague-Dawley rat at 10 mg/kg, iv by LC-MS analysis; type: ADME, organism-based; parameters: time infinity, dose 10 mg/kg, route intravenous; conditions: plasma
[33] = Clearance in Sprague-Dawley rat at 10 mg/kg, iv by LC-MS analysis; type: ADME, organism-based; parameters: dose 10 mg/kg, route intravenous; conditions: in vivo
Staphylococcus aureus [34] = assay: Antibacterial activity against Staphylococcus aureus ATCC 29213 after 16 hrs by agar dilution method relative to Linezolid; type: functional
[35] = system: Staphylococcus epidermidis; assay: Antibacterial activity against methicillin-resistant Staphylococcus epidermidis after 16 hrs by agar dilution method relative to Linezolid; type: functional
Streptococcus pneumoniae [36] = assay: Antibacterial activity against penicillin-resistant Streptococcus pneumoniae after 16 hrs by agar dilution method relative to Linezolid; type: functional
Enterococcus faecalis [37] = assay: Antibacterial activity against Enterococcus faecalis after 16 hrs by agar dilution method relative to Linezolid; type: functional

| Compound | MIC (Staphylococcus aureus [1]) [µg/mL] | MIC (Staphylococcus aureus [2]) [µg/mL] | MIC [3] [µg/mL] | MIC (Streptococcus pneumoniae [4]) [µg/mL] | MIC (Enterococcus faecalis [5]) [µg/mL] | MIC (Staphylococcus aureus [6]) [µg/mL] | MIC [7] [µg/mL] | MIC (Enterococcus faecalis [8]) [µg/mL] | MIC (Enterococcus faecium [9]) [µg/mL] | ED50 (Staphylococcus aureus [10]) [mg/kg] | ED50 (Staphylococcus aureus [11]) [mg/kg] | fold change (FC) (Staphylococcus aureus [12]) | fold change (FC) [13] | fold change (FC) (Enterococcus faecalis [14]) | fold change (FC) (Enterococcus faecium [15]) | other results |
| --- | --- | --- | --- | --- | --- | --- | --- | --- | --- | --- | --- | --- | --- | --- | --- | --- |
| CC(=O)NC[C@@H]1OC(=O)N2c3ccc(-c4ccc(C#N)nc4)cc3OC[C@@H]12 | 0.125 (≈ 0.343 µM) | 0.25 (≈ 0.686 µM) | 0.25 (≈ 0.686 µM) | 0.25 (≈ 0.686 µM) | 0.5 (≈ 1.37 µM) | 2 (≈ 5.49 µM) | 1 (≈ 2.74 µM) | 1 (≈ 2.74 µM) | 0.5 (≈ 1.37 µM) | 2.5 | < 5 | 8 | 8 | 8 | 8 | fold change (FC) (Staphylococcus aureus [16]): 4; fold change (FC) (Staphylococcus aureus [17]): 3; Cmax [18]: 5000 ng/mL; Tmax [19]: 4 h; half-life [20]: 5.5 h; AUC(0-inf) [21]: 66 µg·h/mL; CL/F [22]: 3.82 mL/min/kg; bioavailability [23]: 81%; Cmax [24]: 7000 ng/mL; clearance [25]: 3.07 mL/min/kg |
| CC(=O)NC[C@@H]1OC(=O)N2c3ccc(-c4ccc(C(C)=O)nc4)cc3OC[C@@H]12 | 0.5 (≈ 1.31 µM) | 0.25 (≈ 0.656 µM) | 0.25 (≈ 0.656 µM) | 0.5 (≈ 1.31 µM) | 0.5 (≈ 1.31 µM) | 2 (≈ 5.24 µM) | 1 (≈ 2.62 µM) | 1 (≈ 2.62 µM) | 1 (≈ 2.62 µM) | > 20 |  | 8 | 8 | 8 | 8 |  |
| COc1ccc(-c2ccc3c(c2)OC[C@H]2[C@H](CNC(C)=O)OC(=O)N32)cn1 | 0.25 (≈ 0.677 µM) | 0.5 (≈ 1.35 µM) | 0.5 (≈ 1.35 µM) | 0.5 (≈ 1.35 µM) | 0.5 (≈ 1.35 µM) | 4 (≈ 10.8 µM) | 2 (≈ 5.41 µM) | 2 (≈ 5.41 µM) | 1 (≈ 2.71 µM) |  |  |  |  |  |  |  |
| CC(=O)NC[C@@H]1OC(=O)N2c3ccc(-c4ccc(-c5nnnn5C)nc4)cc3OC[C@@H]12 | 0.5 (≈ 1.19 µM) | 0.25 (≈ 0.593 µM) | 0.25 (≈ 0.593 µM) | 0.25 (≈ 0.593 µM) | 0.5 (≈ 1.19 µM) | 4 (≈ 9.49 µM) | 2 (≈ 4.75 µM) | 1 (≈ 2.37 µM) | 1 (≈ 2.37 µM) |  |  |  |  |  |  |  |
| CC(=O)NC[C@@H]1OC(=O)N2c3ccc(-c4ccc(C5(C#N)CC5)nc4)cc3OC[C@@H]12 | 0.5 (≈ 1.24 µM) | 0.5 (≈ 1.24 µM) | 0.5 (≈ 1.24 µM) | 0.5 (≈ 1.24 µM) | 0.5 (≈ 1.24 µM) | 8 (≈ 19.8 µM) | 1 (≈ 2.47 µM) | 1 (≈ 2.47 µM) | 1 (≈ 2.47 µM) |  |  |  |  |  |  |  |
| CC(=O)NC[C@@H]1OC(=O)N2c3ccc(-c4ccc(C5(N)CC5)nc4)cc3OC[C@@H]12 | 0.25 (≈ 0.634 µM) | 0.25 (≈ 0.634 µM) | 0.25 (≈ 0.634 µM) | 0.5 (≈ 1.27 µM) | 0.5 (≈ 1.27 µM) | 16 (≈ 40.6 µM) | 4 (≈ 10.1 µM) | 4 (≈ 10.1 µM) | 4 (≈ 10.1 µM) |  |  |  |  |  |  |  |
| CC(=O)NC[C@@H]1OC(=O)N2c3ccc(-c4ccc(C#CCO)nc4)cc3OC[C@@H]12 | 0.5 (≈ 1.27 µM) | 0.25 (≈ 0.635 µM) | 0.25 (≈ 0.635 µM) | 0.5 (≈ 1.27 µM) | 0.5 (≈ 1.27 µM) | 4 (≈ 10.2 µM) | 1 (≈ 2.54 µM) | 1 (≈ 2.54 µM) | 1 (≈ 2.54 µM) |  |  |  |  |  |  |  |
| CC(=O)NC[C@@H]1OC(=O)N2c3ccc(-c4ccc(N5CCOC5=O)nc4)cc3OC[C@@H]12 | 0.25 (≈ 0.589 µM) | 0.125 (≈ 0.295 µM) | 0.125 (≈ 0.295 µM) | 0.25 (≈ 0.589 µM) | 0.5 (≈ 1.18 µM) | 2 (≈ 4.71 µM) | 1 (≈ 2.36 µM) | 1 (≈ 2.36 µM) | 0.5 (≈ 1.18 µM) | 11.3 | 9.5 | 8 | 8 | 8 | 8 | Cmax [26]: 9000 ng/mL; Tmax [27]: 6 h; half-life [28]: 4.7 h; AUC(0-inf) [29]: 123 µg·h/mL; bioavailability [30]: 18%; half-life [31]: 3.7 h; AUC(0-inf) [32]: 136 µg·h/mL; clearance [33]: 1.28 mL/min/kg; fold change (FC) (Staphylococcus aureus [34]): 4; fold change (FC) [35]: 4; fold change (FC) (Streptococcus pneumoniae [36]): 4; fold change (FC) (Enterococcus faecalis [37]): 4 |
| CC(=O)NC[C@H]1CN(c2ccc(N3CCOCC3)c(F)c2)C(=O)O1 [LINEZOLID] | 1 (≈ 2.96 µM) | 1 (≈ 2.96 µM) | 1 (≈ 2.96 µM) |  |  | > 16 | 16 (≈ 47.4 µM) |  | 8 (≈ 23.7 µM) | 9.5 | 14.1 |  |  |  |  |  |
